Source: ChEMBL document CHEMBL4219234, “4-Substituted carbamazepine derivatives: Conformational analysis and sodium channel-blocking properties” (Bioorg Med Chem, 2018)
The source made the active and inactive calls. The rule behind the calls is not given here.

Experiments:
[1] = molecular target: Sodium channel protein type 2 subunit alpha (Homo sapiens) (UniProt Q99250); experiment: Inhibition of human Nav1.2 expressed in CHOK1 cells assessed as reduction in peak inward current at 30th pulse using holding potential of -50 mV by patch clamp assay; type: cell-based
[2] = Solubility of the compound in DMSO at > 30 uM; type: physicochemical
[3] = Solubility of the compound in DMSO at > 14.3 uM; type: physicochemical

Sodium channel protein type 2 subunit alpha (Homo sapiens), sequence (Q99250 whole entry, looked up): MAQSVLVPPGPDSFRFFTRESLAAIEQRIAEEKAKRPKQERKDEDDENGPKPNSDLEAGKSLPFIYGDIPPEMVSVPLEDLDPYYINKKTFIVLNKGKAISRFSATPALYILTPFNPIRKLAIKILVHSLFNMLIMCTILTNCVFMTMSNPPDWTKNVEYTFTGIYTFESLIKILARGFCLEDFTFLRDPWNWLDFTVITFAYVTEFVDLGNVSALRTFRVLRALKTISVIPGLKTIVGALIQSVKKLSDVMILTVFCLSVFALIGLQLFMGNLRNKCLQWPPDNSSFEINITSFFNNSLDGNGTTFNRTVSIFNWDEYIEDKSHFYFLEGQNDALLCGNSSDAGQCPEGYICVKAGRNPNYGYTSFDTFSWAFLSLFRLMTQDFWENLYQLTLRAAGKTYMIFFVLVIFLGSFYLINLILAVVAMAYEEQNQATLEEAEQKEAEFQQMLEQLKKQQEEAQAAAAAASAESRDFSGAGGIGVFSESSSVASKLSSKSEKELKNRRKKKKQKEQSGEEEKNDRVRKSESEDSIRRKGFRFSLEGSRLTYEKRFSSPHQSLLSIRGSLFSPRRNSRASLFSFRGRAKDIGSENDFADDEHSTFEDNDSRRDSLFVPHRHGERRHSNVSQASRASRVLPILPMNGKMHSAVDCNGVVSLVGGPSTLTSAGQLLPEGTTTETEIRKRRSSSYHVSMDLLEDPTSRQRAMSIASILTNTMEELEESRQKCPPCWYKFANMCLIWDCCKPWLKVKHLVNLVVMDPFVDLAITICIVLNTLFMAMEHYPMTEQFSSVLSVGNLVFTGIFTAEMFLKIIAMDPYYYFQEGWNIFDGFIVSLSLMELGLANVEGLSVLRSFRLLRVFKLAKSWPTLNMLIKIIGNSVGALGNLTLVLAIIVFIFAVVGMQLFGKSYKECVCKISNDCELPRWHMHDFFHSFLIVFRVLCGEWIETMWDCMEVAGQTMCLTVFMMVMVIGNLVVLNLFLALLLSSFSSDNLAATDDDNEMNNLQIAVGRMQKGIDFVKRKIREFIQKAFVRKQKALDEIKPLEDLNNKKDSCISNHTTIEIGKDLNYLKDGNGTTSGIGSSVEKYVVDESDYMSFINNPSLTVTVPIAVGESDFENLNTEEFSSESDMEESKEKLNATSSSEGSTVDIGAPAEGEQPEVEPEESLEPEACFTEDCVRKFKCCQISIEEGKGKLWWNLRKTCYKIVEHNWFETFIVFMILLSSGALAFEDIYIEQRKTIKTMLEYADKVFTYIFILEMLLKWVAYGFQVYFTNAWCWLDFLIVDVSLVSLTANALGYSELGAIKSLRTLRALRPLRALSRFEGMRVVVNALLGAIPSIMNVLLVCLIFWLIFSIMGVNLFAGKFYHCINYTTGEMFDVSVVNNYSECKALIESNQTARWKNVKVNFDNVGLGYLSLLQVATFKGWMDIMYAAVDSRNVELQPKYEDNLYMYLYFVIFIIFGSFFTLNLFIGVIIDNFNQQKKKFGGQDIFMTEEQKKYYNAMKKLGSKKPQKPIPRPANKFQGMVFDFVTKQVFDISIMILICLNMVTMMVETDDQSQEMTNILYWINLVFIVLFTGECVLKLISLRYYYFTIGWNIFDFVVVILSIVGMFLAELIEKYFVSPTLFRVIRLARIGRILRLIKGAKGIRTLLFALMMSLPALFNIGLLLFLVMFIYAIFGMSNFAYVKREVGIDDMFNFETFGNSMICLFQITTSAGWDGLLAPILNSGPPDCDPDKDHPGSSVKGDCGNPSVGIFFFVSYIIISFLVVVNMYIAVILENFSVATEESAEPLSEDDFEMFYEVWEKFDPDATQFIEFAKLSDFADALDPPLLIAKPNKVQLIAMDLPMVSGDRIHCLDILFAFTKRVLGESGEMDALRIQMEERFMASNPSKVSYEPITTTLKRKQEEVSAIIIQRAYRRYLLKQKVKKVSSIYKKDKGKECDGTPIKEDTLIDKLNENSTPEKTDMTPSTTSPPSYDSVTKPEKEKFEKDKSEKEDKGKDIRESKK

Row | Compound | inhibition [1] | solubility [2] | solubility [3]
1 | Cc1cccc2c1N(C(N)=O)c1ccccc1C=C2 | Active | Insoluble | –
2 | NC(=O)N1c2ccccc2C=Cc2cccc(Cl)c21 | Active | – | Insoluble
3 | NC(=O)N1c2ccccc2C=Cc2ccccc21 | Active | – | –
